Source: PMC8536627, “Hydrolytic stability of anticancer drugs and one metabolite in the aquatic environment” (Environmental Science and Pollution Research International, 2021)
Like-named read-outs stand apart in the source and are kept apart here.

Key:
physchem = conditions: for Hydrolytic stability in the preliminary test: pH 4, 7 and 9, 50 °C
Description: The incubation was performed in the dark, in order to avoid the influence of the photolysis on degradation of the analytes. The water used for the preparation of buffers was autoclaved, all glassware was clean, flushed with methanol, and dried in high temperature. Samples were closed in glass tubes with a sealed cap. The air from above the solution was removed by a nitrogen stream just before capping. In the preliminary test, solutions of single analytes were prepared in each tested pH: 4, 7, and 9, which is required by the OECD guidelines. There was also a blank sample prepared for each pH. Samples in the preliminary test were prepared in two parallel replicates. Moreover, the complete preliminary test was repeated twice. The preliminary test was performed at 50 °C for 5 days. […] In the case of the extended tests, 7 measuring points were provided during the time of the test. Each measuring point was performed in two parallel replicates. […] The test was conducted for 30 days or to 90 % elimination of a compound. Obtained results were used to determine the hydrolysis rate constant (k) using equation: 1 lnCt/C0=kt
The HPLC-UV/Vis technique was applied to determine the level of hydrolytic degradation of the analytes. In the preliminary test, the control and blank samples were analyzed at the beginning and the end of the test. […] In the extended test, the samples collected in the time intervals were analyzed, and peak areas were compared to those obtained at the beginning of the test. This was used to determine the kinetic of this hydrolysis process by using the Equation 1. In general, each analyte was analyzed by a simple HPLC method with UV/Vis detection. Gemini C18 (Phenomenex, USA), 5 μm, 110 Å, 150 mm × 4.6 mm chromatographic column was applied for each method and three different mobile phases were used (water or 0.1 % HCOOH) mixed with the acetonitrile. The conditions applied during the LC-MS analysis with an ion trap detector for the qualitative analysis of the samples collected after the extended tests at 20 and 70 °C are presented in the Table S2.

[1] = parameters: method as in Legay et al. [2014]; conditions: ref Legay et al. [2014]; cited from earlier work
[2] = parameters: method as in Yadav et al. [2012]; conditions: also under several stress conditions; ref Yadav et al. [2012]; cited from earlier work
[3] = HPLC water with 4 % DMSO, ref Negreira et al. ([2013a]), cited from earlier work; for Degradation level / loss: 25 °C, 24 h incubation
[4] = parameters: method as in Negreira et al. ([2013b]); conditions: acidification of samples, organic modifier such as 50 % methanol or DMSO, previously tested conditions; ref Negreira et al. ([2013b]); cited from earlier work
[5] = parameters: method as in McElnay et al. ([1988]) and Vrignaud et al. ([2015]); conditions: ref McElnay et al. ([1988]) and Vrignaud et al. ([2015]); cited from earlier work
[6] = parameters: method as in Białk-Bielińska et al. [2017]; conditions: ref Białk-Bielińska et al. [2017]; cited from earlier work

half-life (physchem; aqueous buffer) [days]	Degradation level in the preliminary test (physchem; pH 4, 50 °C, 5 days, dark) [%]	SMILES	half-life (physchem; buffer) [days]	Hydrolytic stability in the preliminary test (physchem; 5 days)	Stability in aqueous solutions for medication purposes [1]	Temperature up to which found stable [2]	Stability in 24 h test ([3]; 4 °C, 24 h)	Long-term stability at 4 °C ([3]; 4 °C)	Stability in 24 h test ([3]; 15 °C, 24 h)	Degradation level / loss [3] [%]	Stability after acidification and with organic modifier [4]	Time of proved stability [5]	Hydrolytic stability under ecotoxicological test conditions [6]	Photolytic stability under ecotoxicological test conditions [6]	Concentration decreased to ([3]; 4 °C, after 9 days)	Disappeared from solution ([3]; 15 °C, 24 h)
–	–	O=c1[nH]cc(F)c(=O)[nH]1 [5-FU, 5-fluorouracil]	≥ 365	hydrolytically stable	stable	up to 275 °C	stable	stable for 1 month	still stable	11	–	–	–	–	–	–
≥ 365	0	CN(Cc1cnc2nc(N)nc(N)c2n1)c1ccc(C(=O)N[C@@H](CCC(=O)O)C(=O)O)cc1 [MTX, methotrexate]	–	hydrolytically stable	–	–	stable	–	–	65	stable	at least 24 h	hydrolytically stable	susceptible to photolysis	around 50%	more than 50%
